Legend:
[1] = target: T1, JNK1 (Homo sapiens, UniProt P45983); assay: KINOMEscan JNK1 binding (Kd); conditions: 12-point series, max 33 μM, duplicate
T1 construct: purchased Eurofins Pharma Discovery (KINOMEscan service)
Protocol: (§1) All compounds were evaluated for their ability to bind to JNK1-3 using the KINOMEscan platform.
(§2) Compounds were submitted for dissociation constant (Kd) determination using KINOMEscan (Eurofins Pharma Discovery, San Diego, CA, USA), as described previously. […] Primary screening at fixed concentrations of compounds was performed in duplicate. To determine dissociation constant Kd, a 12-point half-log dilution series (a maximum concentration of 33 μM) was used.

[2] = target: T2, JNK2 (Homo sapiens, UniProt P45984); assay: KINOMEscan JNK2 binding (Kd); conditions: 12-point series, max 33 μM, duplicate
T2 construct: purchased Eurofins Pharma Discovery (KINOMEscan service)
Protocol: as §1, §2

[3] = target: T3, JNK3 (Homo sapiens, UniProt P53779); assay: KINOMEscan JNK3 binding (Kd); conditions: for Kd: KINOMEscan, 12-point series, max 33 μM, duplicate; for Selectivity Index JNK1/JNK3 / Selectivity Index JNK2/JNK3: ratio of Kd values
T3 construct: purchased Eurofins Pharma Discovery (KINOMEscan service)
Protocol: as §1, §2

[4] = CellTiter-Glo cytotoxicity in THP-1Blue cells; format: cell-based; conditions: human, 24 h incubation
Protocol: (§3) Prior to evaluation of the compounds in cell-based assays, we measured their cytotoxicity in human monocytic THP-1Blue and MonoMac-6 cells during a 24 h incubation. […] Thus, these compounds were all excluded from subsequent testing in these cell lines.
(§4) Cytotoxicity was analyzed with a CellTiter-Glo Luminescent Cell Viability Assay Kit from Promega (Madison, WI, USA), according to the manufacturer’s protocol. Cells were treated with the compound under investigation and cultivated for 24 h. After treatment, the cells were allowed to equilibrate to room temperature for 30 min, substrate was added, and the luminescence measured using a Fluoroscan Ascent FL (Thermo Fisher Scientific, Waltham, MA, USA). The cell IC50 values were calculated by plotting the percentage inhibition against the logarithm of inhibitor concentration (at least five points).

[5] = CellTiter-Glo cytotoxicity in MonoMac-6 cells; format: cell-based; conditions: human, 24 h incubation
Protocol: as §3, §4

[6] = tested on: NF-κB/AP-1 transcriptional activity in THP-1Blue cells; assay: LPS-induced NF-κB/AP-1 alkaline phosphatase reporter assay in THP-1Blue cells; format: cell-based; conditions: Homo sapiens, 30 min pretreatment, 250 ng/mL LPS, 24 h; read-out: AP Production in THP–1Blue IC50
Protocol: Activation of AP-1/NF-κB was measured using an alkaline phosphatase reporter gene assay in THP1-Blue cells. Human monocytic THP-1Blue cells were stably transfected with a secreted embryonic alkaline phosphatase gene that was under the control of a promoter inducible by AP-1/NF-κB.
Figure 2 Effect of compounds 4d and 4e on NF-κB/AP-1 activity and IL-6 production. Panel (A) THP-1Blue cells were pretreated with the indicated compounds or DMSO for 30 min, followed by addition of 250 ng/mL LPS or buffer for 24 h. […] Panel (B) MonoMac-6 cells were pretreated with the indicated compounds or DMSO for 30 min, followed by addition of 250 ng/mL LPS or buffer for 24 h. Production of IL-6 in the supernatants was evaluated with ELISA. The data in each panel are presented as the mean ± S.D. of triplicate samples from one experiment that is representative of three independent experiments.

[7] = tested on: IL-6 production in MonoMac-6 cells; assay: LPS-induced IL-6 production in MonoMac-6 cells (ELISA); format: cell-based, human; conditions: Homo sapiens, MONO-MAC-6, 30 min pretreatment, 250 ng/mL LPS, 24 h
Protocol: All cells were cultured at 37 °C in a humidified atmosphere containing 5% CO2. Human THP-1Blue monocytic cells obtained from InvivoGen (San Diego, CA, USA) were cultured in RPMI 1640 medium (Mediatech Inc., Herndon, VA, USA) supplemented with 10% (v/v) fetal bovine serum (FBS), 4.5 g/L glucose, 100 μg/mL streptomycin, 100 U/mL penicillin, 100 μg/mL phleomycin (Zeocin), and 10 μg/mL blasticidin S. Human monocyte-macrophage MonoMac-6 cells (Deutsche Sammlung von Mikroorganismen und Zellkulturen GmbH, Braunschweig, Germany) were grown in RPMI 1640 medium supplemented with 10% (v/v) FBS, 10 μg/mL bovine insulin, 100 μg/mL streptomycin, and 100 U/mL penicillin.
Panel (A) THP-1Blue cells were pretreated with the indicated compounds or DMSO for 30 min, followed by addition of 250 ng/mL LPS or buffer for 24 h. […] Panel (B) MonoMac-6 cells were pretreated with the indicated compounds or DMSO for 30 min, followed by addition of 250 ng/mL LPS or buffer for 24 h. Production of IL-6 in the supernatants was evaluated with ELISA. The data in each panel are presented as the mean ± S.D. of triplicate samples from one experiment that is representative of three independent experiments.

T2 sequence (P45984 whole entry): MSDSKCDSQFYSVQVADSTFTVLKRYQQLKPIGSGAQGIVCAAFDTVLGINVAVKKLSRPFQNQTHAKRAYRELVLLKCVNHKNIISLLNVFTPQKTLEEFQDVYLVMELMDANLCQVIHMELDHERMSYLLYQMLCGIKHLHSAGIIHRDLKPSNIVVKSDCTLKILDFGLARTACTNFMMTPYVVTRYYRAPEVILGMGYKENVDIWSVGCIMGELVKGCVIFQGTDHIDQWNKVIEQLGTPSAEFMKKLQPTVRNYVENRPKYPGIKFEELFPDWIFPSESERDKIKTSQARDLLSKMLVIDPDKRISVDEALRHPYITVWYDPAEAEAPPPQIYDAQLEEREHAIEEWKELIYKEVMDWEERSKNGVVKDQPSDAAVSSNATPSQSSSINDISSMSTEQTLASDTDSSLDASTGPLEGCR
T3 sequence (P53779 whole entry): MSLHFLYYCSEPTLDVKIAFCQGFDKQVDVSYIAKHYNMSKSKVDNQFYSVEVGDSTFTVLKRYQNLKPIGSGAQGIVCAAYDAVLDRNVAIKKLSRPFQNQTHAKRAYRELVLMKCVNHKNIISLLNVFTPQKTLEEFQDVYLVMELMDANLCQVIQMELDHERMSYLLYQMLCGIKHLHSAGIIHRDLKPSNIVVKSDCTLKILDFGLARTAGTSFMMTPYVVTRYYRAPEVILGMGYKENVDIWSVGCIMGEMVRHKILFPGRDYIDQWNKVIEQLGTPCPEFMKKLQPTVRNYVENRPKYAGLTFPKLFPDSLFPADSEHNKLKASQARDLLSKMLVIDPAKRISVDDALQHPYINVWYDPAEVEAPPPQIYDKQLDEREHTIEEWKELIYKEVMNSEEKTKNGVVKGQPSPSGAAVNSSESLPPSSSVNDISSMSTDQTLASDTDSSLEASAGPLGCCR
T1 sequence (P45983 whole entry): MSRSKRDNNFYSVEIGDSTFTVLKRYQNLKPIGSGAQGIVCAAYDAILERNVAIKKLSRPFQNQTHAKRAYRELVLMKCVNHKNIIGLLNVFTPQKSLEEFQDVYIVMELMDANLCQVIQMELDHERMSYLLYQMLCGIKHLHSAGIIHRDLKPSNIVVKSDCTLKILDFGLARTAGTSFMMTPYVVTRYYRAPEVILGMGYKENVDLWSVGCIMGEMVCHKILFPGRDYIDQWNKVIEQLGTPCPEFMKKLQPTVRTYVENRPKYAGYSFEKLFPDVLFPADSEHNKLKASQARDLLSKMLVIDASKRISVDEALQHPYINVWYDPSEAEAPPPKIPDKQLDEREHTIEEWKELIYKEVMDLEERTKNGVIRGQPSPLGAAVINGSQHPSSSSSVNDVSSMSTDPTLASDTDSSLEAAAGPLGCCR

Row | Structure (SMILES) | Kd [1] [µM] | Kd [2] [µM] | selectivity index (JNK3 versus JNK1 and JNK2) [3] | Kd [3] [µM] | Selectivity Index JNK1/JNK3 [3] | Selectivity Index JNK2/JNK3 [3] | IC50 [6] [µM] | IC50 [7] [µM] | melting point | IC50 at 24 h [4] [µM] | IC50 at 24 h [5] [µM]
1 | O=c1c2cc(C(F)(F)F)ccc2nc2n1-c1ccccc1C2=NO [Compound 4i, 2-Trifluoromethylindolo[2,1-b]quinazolin-6,12-dione Oxime] | > 30 | > 30 |  | 11 ± 1.4 | >3 | >3 |  |  | > 225 °C (dec.) | 5.6 ± 1.2 | 5.7 ± 1.2
2 | O=c1c2ccc(Br)cc2nc2n1-c1ccccc1C2=NO [Compound 4k, 3-Bromoindolo[2,1-b]quinazolin-6,12-dione Oxime] | > 30 | > 30 |  | 5.7 ± 1.8 | >6 | >6 |  |  | > 225 °C (dec.) | 24.1 ± 2.7 | > 50
3 | O=c1c2cc([N+](=O)[O-])ccc2nc2n1-c1ccccc1C2=NO [Compound 4n, 2-Nitroindolo[2,1-b]quinazolin-6,12-dione Oxime] | > 30 | > 30 |  | 8.7 ± 1 | >3.9 | >3.9 |  | 9.6 ± 1.3 | > 225 °C (dec.) | 39.3 ± 3.1 | > 50
4 | O=c1c2ccc(Br)cc2nc2n1-c1cc(Br)ccc1C2=NO [Compound 4s, 3,9-Dibromoindolo[2,1-b]quinazolin-6,12-dione Oxime] | > 30 | > 30 |  | > 30 |  |  |  |  | > 300 °C (dec.) | 49.1 ± 8.3 | 16.9 ± 3.4
5 | O=c1c2cc(Br)ccc2nc2n1-c1ccc(Br)cc1C2=NO [Compound 4t, 2,8-Dibromoindolo[2,1-b]quinazolin-6,12-dione Oxime] | > 30 | > 30 |  | > 30 |  |  |  |  | 250 to 251 °C | 6.6 ± 0.3 | 9.2 ± 2.1
6 | O=c1c2ccccc2nc2n1-c1ccccc1C2=NO [TRYP-Ox, tryptanthrin-6-oxime, reference compound] |  |  |  |  |  |  | 3.8 ± 1.1 |  |  | > 50 | > 50

The next lines start with results.

Row | Kd [1] [µM] | Kd [2] [µM] | selectivity index (JNK3 versus JNK1 and JNK2) [3] | Kd [3] [µM] | Selectivity Index JNK1/JNK3 [3] | Selectivity Index JNK2/JNK3 [3] | IC50 [6] [µM] | IC50 [7] [µM] | melting point | Structure (SMILES) | IC50 at 24 h [4] [µM] | IC50 at 24 h [5] [µM]
7 | > 30 | > 30 | > 7 | 0.86 ± 0.042 | >40 | >40 |  |  |  | O=c1c2ccccc2nc2n1-c1ccc([N+](=O)[O-])cc1C2=NO [Compound 4a, 8-Nitroindolo[2,1-b]quinazolin-6,12-dione Oxime] | 8.4 ± 0.9 | 4.1 ± 0.7
8 | 3.2 ± 0.21 | 8.5 ± 3.2 | > 7 | 0.41 ± 0.07 | 7.8 | 20.7 | 2.1 ± 0.7 | 15.5 ± 3.8 | > 225 °C (dec.) | O=c1c2ccccc2nc2n1-c1ccc(Br)cc1C2=NO [Compound 4b, 8-Bromoindolo[2,1-b]quinazolin-6,12-dione Oxime] | > 50 | > 50
9 | 2.6 ± 0.4 | 1.3 ± 0.01 |  | 0.49 ± 0.09 | 5.3 | 2.7 | 0.7 ± 0.2 |  | > 225 °C (dec.) | CCc1ccc2c(c1)C(=NO)c1nc3ccccc3c(=O)n1-2 [Compound 4c, 8-Ethylindolo[2,1-b]quinazolin-6,12-dione Oxime] | > 50 | 13.3 ± 1.3
10 | > 30 | > 30 |  | > 30 |  |  |  |  | > 225 °C (dec.) | O=c1c2cc(Br)ccc2nc2n1-c1ccc([N+](=O)[O-])cc1C2=NO [Compound 4f, 2-Bromo-8-nitroindolo[2,1-b]quinazolin-6,12-dione Oxime] | 3.8 ± 0.9 | 2.7 ± 0.6
11 | 6.2 ± 1.8 | 14 ± 0.7 |  | 0.4 ± 0.04 | 15.5 | 35 | > 50 | 25.2 ± 5.3 | > 225 °C (dec.) | Cc1cccc2c1C(=NO)c1nc3ccccc3c(=O)n1-2 [Compound 4g, 7-Methylindolo[2,1-b]quinazolin-6,12-dione Oxime] | > 50 | > 50
12 | 4.1 ± 0.6 | 7.4 ± 0.6 |  | 1.9 ± 0.4 | 2.2 | 3.9 |  |  | > 225 °C (dec.) | O=c1c2cc(Br)ccc2nc2n1-c1ccccc1C2=NO [Compound 4j, 2-Bromoindolo[2,1-b]quinazolin-6,12-dione Oxime] | 12.5 ± 2.3 | 8.2 ± 1.6
13 | 4.6 ± 0.6 | 5.8 ± 1.6 |  | 3.2 ± 1.1 | 1.4 | 1.8 |  |  | 292 to 293 °C | COc1ccc2c(c1)-n1c(nc3cc(OC)ccc3c1=O)C2=NO [Compound 4r, 3,9-Dimethoxylindolo[2,1-b]quinazolin-6,12-dione Oxime] | 8.3 ± 1.3 | 4.3 ± 0.9
14 | 0.47 ± 0.08 | 1.5 ± 0.6 |  | 0.27 ± 0.01 | 1.7 |  | 3.5 ± 1.2 |  | 206 to 208 °C | O=C(ON=C1c2ccccc2-n2c1nc1ccccc1c2=O)c1ccc2c(c1)OCO2 [Compound 5e, 6-(((Benzo[d][1,3]dioxol-5-carbonyl)oxy)imino)indolo[2,1-b]quinazolin-12(6H)-one] | > 50 | 27.3 ± 1.4

Reference: paper PMC10304880, “Novel Tryptanthrin Derivatives with Selectivity as c–Jun N–Terminal Kinase (JNK) 3 Inhibitors” (Molecules, 2023)
